# Laboratory results published in patent publication US20260355196A1, “INHIBITORS AND DEGRADERS OF PIP4K PROTEIN” (Larkspur Biosciences, Inc., priority 2023, published 2026).
# Molecular target: T1, PIP4K2C (Homo sapiens, UniProt Q8TBX8)
# T1 sequence (Q8TBX8 1-421): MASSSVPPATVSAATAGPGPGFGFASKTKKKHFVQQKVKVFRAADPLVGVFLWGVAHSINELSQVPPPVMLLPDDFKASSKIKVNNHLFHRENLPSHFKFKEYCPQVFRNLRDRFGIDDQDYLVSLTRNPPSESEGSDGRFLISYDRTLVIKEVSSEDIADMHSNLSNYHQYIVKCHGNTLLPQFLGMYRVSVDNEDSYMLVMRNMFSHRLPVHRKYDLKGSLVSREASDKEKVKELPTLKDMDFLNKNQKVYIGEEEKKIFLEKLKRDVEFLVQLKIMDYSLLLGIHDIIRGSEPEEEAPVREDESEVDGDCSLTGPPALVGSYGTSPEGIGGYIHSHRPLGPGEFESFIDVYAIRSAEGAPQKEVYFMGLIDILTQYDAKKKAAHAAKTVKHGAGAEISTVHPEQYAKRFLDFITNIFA
# Test: HiBiT PIP4K2C degradation assay in MOLT-4 cells (endogenous PIP4K2C C-terminally tagged with HiBiT)
# Assay type: cell-based
# Parameters: untagged in primary human PBMCs and monocyte-derived dendritic cells
# Conditions: 6 hours of incubation time, rather than 24 hours; MOLT-4, top concentration 10 micromolar; read-out: HiBIT-degradation MOLT4 PIP4k2C DC50 (6 hours, marked *)
# Outline: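 Endogenous PIP4K2C was C-terminally HiBiT-tagged by CRISPR-Cas9 in MOLT-4 cells, which were treated with a 10-point, 3-fold dilution series from 10 micromolar in duplicate for 24 or 6 hours at 37 C. Remaining protein was read by HiBiT lytic luminescence, and DC50 came from a Hill fit.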
row,Compound,DC50 [nM]
1,"O=C1CCC(Nc2ccc(C3CCN(CCC4CCN(C(=O)O[C@H]5CC[C@H](Nc6ncc(F)c(-c7cccc(-c8ccccc8)c7)n6)CC5)CC4)CC3)c(F)c2)C(=O)N1 (stereo partly drawn) [Compound 469, trans-4-((4-([1,1′-biphenyl]-3-yl)-5-fluoropyrimidin-2-yl)amino)cyclohexyl 4-(2-(4-(4-((2,6-dioxopiperidin-3-yl)amino)-2-fluorophenyl)piperidin-1-yl)ethyl)piperidine-1-carboxylate]",< 500
2,"Cc1ccn(-c2cccc(-c3nc(N[C@H]4CC[C@H](C(=O)N5CCC(O)(CN6CCN(c7ccc(NC8CCC(=O)NC8=O)cc7F)CC6)CC5)CC4)ncc3F)c2)c(=O)c1 (stereo partly drawn) [Compound 470, trans-3-((3-fluoro-4-(4-((1-(4-((5-fluoro-4-(3-(4-methyl-2-oxopyridin-1 (2H)-yl)phenyl)pyrimidin-2-yl)amino)cyclohexane-1-carbonyl)-4-hydroxypiperidin-4-yl)methyl)piperazin-1-yl)phenyl)amino)piperidine-2,6-dione]",< 500
3,"Cc1ccn(-c2cccc(-c3nc(N[C@H]4CC[C@H](C(=O)N5CCC(CN6CCN(c7ccc(NC8CCC(=O)NC8=O)cc7F)CC6)CC5)CC4)ncc3F)c2)c(=O)c1 (stereo partly drawn) [Compound 471, trans-3-((3-fluoro-4-(4-((1-(4-((5-fluoro-4-(3-(4-methyl-2-oxopyridin-1 (2H)-yl)phenyl)pyrimidin-2-yl)amino)cyclohexane-1-carbonyl)piperidin-4-yl)methyl)piperazin-1-yl)phenyl)amino)piperidine-2,6-dione]",< 500
4,"Cc1ccn(-c2cccc(-c3nc(N[C@H]4CC[C@H](C(=O)N5CCC(O)(CN6CCC(c7ccc(NC8CCC(=O)NC8=O)cc7F)CC6)CC5)CC4)ncc3F)c2)c(=O)c1 (stereo partly drawn) [Compound 472, trans-3-[3-fluoro-4-[1-[[1-[4-[[5-fluoro-4-[3-(4-methyl-2-oxo-1-pyridyl)phenyl]pyrimidin-2-yl]amino]cyclohexanecarbonyl]-4-hydroxy-4-piperidyl]methyl]-4-piperidyl]anilino]piperidine-2,6-dione]",< 500
5,"Cc1ccn(-c2cccc(-c3nc(N[C@H]4CC[C@H](C(=O)N5CCC(CN6CCC(c7ccc(NC8CCC(=O)NC8=O)cc7F)CC6)CC5)CC4)ncc3F)c2)c(=O)c1 (stereo partly drawn) [Compound 473, trans-3-((3-fluoro-4-(1-((1-(4-((5-fluoro-4-(3-(4-methyl-2-oxopyridin-1 (2H)-yl)phenyl)pyrimidin-2-yl)amino)cyclohexane-1-carbonyl)piperidin-4-yl)methyl)piperidin-4-yl)phenyl)amino)piperidine-2,6-dione]",< 500
6,"O=C1CCC(Nc2ccc(C3CCN(C4CCN(C(=O)O[C@H]5CC[C@H](Nc6ncc(F)c(-c7cccc(-n8ccccc8=O)c7)n6)CC5)CC4)CC3)c(F)c2)C(=O)N1 (stereo partly drawn) [Compound 474, trans-4-((5-fluoro-4-(3-(2-oxopyridin-1 (2H)-yl)phenyl)pyrimidin-2-yl)amino)cyclohexyl 4-(4-((2,6-dioxopiperidin-3-yl)amino)-2-fluorophenyl)-[1,4′-bipiperidine]-1′-carboxylate]",< 500
7,"O=C1CCC(Nc2ccc(N3CCN(C4CCN(C(=O)O[C@H]5CC[C@H](Nc6ncc(F)c(-c7cccc(-n8ccccc8=O)c7)n6)CC5)CC4)CC3)c(F)c2)C(=O)N1 (stereo partly drawn) [Compound 475, trans-4-((5-fluoro-4-(3-(2-oxopyridin-1 (2H)-yl)phenyl)pyrimidin-2-yl)amino)cyclohexyl 4-(4-(4-((2,6-dioxopiperidin-3-yl)amino)-2-fluorophenyl)piperazin-1-yl)piperidine-1-carboxylate]",< 500
8,"O=C1CCC(Nc2ccc(N3CCC(N4CCC(NC(=O)[C@H]5CC[C@H](Nc6ncc(F)c(-c7cccc(N8CCOCC8=O)c7)n6)CC5)CC4)C(F)C3)c(F)c2)C(=O)N1 (stereo partly drawn) [Compound 476, trans-N-(1′-(4-((2,6-dioxopiperidin-3-yl)amino)-2-fluorophenyl)-3′-fluoro-[1,4′-bipiperidin]-4-yl)-4-((5-fluoro-4-(3-(3-oxomorpholino)phenyl)pyrimidin-2-yl)amino)cyclohexane-1-carboxamide]",< 500
9,"O=C1CCC(Nc2ccc(C3CCN(CC4CCN(C(=O)[C@H]5CC[C@H](Nc6ncc(F)c(-c7cccc(N8CCCCC8)c7)n6)CC5)CC4)CC3)c(F)c2)C(=O)N1 (stereo partly drawn) [Compound 477, trans-3-((3-fluoro-4-(1-((1-(trans-4-((5-fluoro-4-(3-(piperidin-1-yl)phenyl)pyrimidin-2-yl)amino)cyclohexane-1-carbonyl)piperidin-4-yl)methyl)piperidin-4-yl)phenyl)amino)piperidine-2,6-dione]",< 500

# Further lines, results first:
row,DC50 [nM],Compound
1,< 500,"O=C1CCC(Nc2ccc(N3CCC(N4CCC(NC(=O)[C@H]5CC[C@H](Nc6ncc(F)c(-c7cccc(-c8ccc[nH]c8=O)c7)n6)CC5)CC4)C(F)C3)c(F)c2)C(=O)N1 (stereo partly drawn) [Compound 453, trans-N-(1′-(4-((2,6-dioxopiperidin-3-yl)amino)-2-fluorophenyl)-3′-fluoro-[1,4′-bipiperidin]-4-yl)-4-((5-fluoro-4-(3-(2-oxo-1,2-dihydropyridin-3-yl)phenyl)pyrimidin-2-yl)amino)cyclohexane-1-carboxamide]"
2,< 500,"O=C1CC[C@@H](Nc2ccc(C3CCN([C@H]4CC[C@H](C(=O)N[C@H]5CC[C@H](Nc6ncc(F)c(-c7cccc(-c8ccc[nH]c8=O)c7)n6)CC5)CC4)CC3)c(F)c2)C(=O)N1 [Compound 454, trans-4-(4-(4-(((R)-2,6-dioxopiperidin-3-yl)amino)-2-fluorophenyl)piperidin-1-yl)-N-(trans-4-((5-fluoro-4-(3-(2-oxo-1,2-dihydropyridin-3-yl)phenyl)pyrimidin-2-yl)amino)cyclohexyl)cyclohexane-1-carboxamide]"
3,< 500,"O=C1CC[C@H](Nc2ccc(C3CCN([C@H]4CC[C@H](C(=O)N[C@H]5CC[C@H](Nc6ncc(F)c(-c7cccc(-n8ccccc8=O)c7)n6)CC5)CC4)CC3)c(F)c2)C(=O)N1 [Compound 457, (1S,4R)-4-(4-(4-(((S)-2,6-dioxopiperidin-3-yl)amino)-2-fluorophenyl)piperidin-1-yl)-N-((1r,4R)-4-((5-fluoro-4-(3-(2-oxopyridin-1(2H)-yl)phenyl)pyrimidin-2-yl)amino)cyclohexyl)cyclohexane-1-carboxamide]"
4,< 500,"O=C1CCC(Nc2ccc(N3CCN(CC4(O)CCN(C(=O)[C@H]5CC[C@H](Nc6ncc(F)c(-c7cccc(-c8ccccc8)c7)n6)CC5)CC4)CC3)c(F)c2)C(=O)N1 (stereo partly drawn) [Compound 463, trans-3-[3-fluoro-4-[4-[[1-[4-[[5-fluoro-4-(3-phenylphenyl)pyrimidin-2-yl]amino]cyclohexanecarbonyl]-4-hydroxy-4-piperidyl]methyl]piperazin-1-yl]anilino]piperidine-2,6-dione]"
5,< 500,"O=C1CCC(Nc2ccc(C3CCN(CC4(O)CCN(C(=O)[C@H]5CC[C@H](Nc6ncc(F)c(-c7cccc(-c8ccccc8)c7)n6)CC5)CC4)CC3)c(F)c2)C(=O)N1 (stereo partly drawn) [Compound 464, 3-((4-(1-((1-(trans-4-((4-([1,1′-biphenyl]-3-yl)-5-fluoropyrimidin-2-yl)amino)cyclohexane-1-carbonyl)-4-hydroxypiperidin-4-yl)methyl)piperidin-4-yl)-3-fluorophenyl)amino)piperidine-2,6-dione]"
6,< 500,"O=C1CCC(Nc2ccc(C3CCN(CC4CCN(C(=O)N5CCC(Nc6ncc(F)c(-c7cccc(-n8ccccc8=O)c7)n6)CC5)CC4)CC3)c(F)c2)C(=O)N1 (stereo not drawn) [Compound 465, 3-((3-fluoro-4-(1-((1-(4-((5-fluoro-4-(3-(2-oxopyridin-1 (2H)-yl)phenyl)pyrimidin-2-yl)amino)piperidine-1-carbonyl)piperidin-4-yl)methyl)piperidin-4-yl)phenyl)amino)piperidine-2,6-dione]"
7,< 500,"O=C1CCC(Nc2ccc(C3CCN(CC4CCN(C(=O)[C@H]5CC[C@H](Nc6ncc(F)c(-c7cccc(-c8ccccc8)c7)n6)CC5)CC4)CC3)c(F)c2)C(=O)N1 (stereo partly drawn) [Compound 466, 3-((4-(1-((1-(trans-4-((4-([1,1′-biphenyl]-3-yl)-5-fluoropyrimidin-2-yl)amino)cyclohexane-1-carbonyl)piperidin-4-yl)methyl)piperidin-4-yl)-3-fluorophenyl)amino)piperidine-2,6-dione]"
8,< 500,"Cn1nc(C2CCC(=O)NC2=O)c2ccc(C3CCN(CC4CCN(C(=O)O[C@H]5CC[C@H](Nc6ncc(F)c(-c7cccc(-n8ccccc8=O)c7)n6)CC5)CC4)CC3)cc21 (stereo partly drawn) [Compound 467, trans-4-((5-fluoro-4-(3-(2-oxopyridin-1 (2H)-yl)phenyl)pyrimidin-2-yl)amino)cyclohexyl 4-((4-(3-(2,6-dioxopiperidin-3-yl)-1-methyl-1H-indazol-6-yl)piperidin-1-yl)methyl)piperidine-1-carboxylate]"
9,< 500,"O=C1CCC(Nc2ccc(C3CCN(CC4CCN(C(=O)[C@H]5CC[C@H](Nc6ncc(F)c(-c7cccc(C(=O)N8CC[C@H](O)C8)c7)n6)CC5)CC4)CC3)c(F)c2)C(=O)N1 (stereo partly drawn) [Compound 468, trans-3-((3-fluoro-4-(1-((1-(4-((5-fluoro-4-(3-((S)-3-hydroxypyrrolidine-1-carbonyl)phenyl)pyrimidin-2-yl)amino)cyclohexane-1-carbonyl)piperidin-4-yl)methyl)piperidin-4-yl)phenyl)amino)piperidine-2,6-dione]"
